This is an account of results in US11504428B2, “Photosensitizer and derivatives and application thereof” (DALIAN UNIVERSITY OF TECHNOLOGY, priority 2017, dated 2022).

For data set [1], the system named is COS-7 (African green monkey kidney cells). Description: In vitro anticancer test (MTT cell viability), dark and 660 nm light, COS-7. In kind it is cell-based.
Data set [2] has as its system HepG2 (hepatoma cells). Description: In vitro anticancer test (MTT cell viability), dark and 660 nm light, HepG2. In kind it is cell-based. Here is the method: MCF-7 (human breast) cancer cells or HepG2 (liver cancer cell) are incubated on the cell culture plate in DMEM medium supplemented with 10% FBS and 1% penicillin-streptomycin at 37° C. in a humidified, 5% CO2 atmosphere. Then, the MCF-7 cells are seeded in 96 well cell culture plate at density of 5,000 cells per well. After 24 h incubation, 100 μL of 1-1-Biotin at different concentrations (5, 2.5, 1.25, 0.625, 0.32, 0.16, 0.08, 0.04, 0.02 μM) are added into the each well, and cultured for 1 h. Then, the cell medium is replaced with 200 μL fresh medium. For the phototoxicity test, the 96-well plate is irradiated with 660 nm light source for 10 min and then cultured in the above environment for 12 hours. No light irradiation is used as control. Then 20 μL MTT solution with a concentration of 5 mg/mL is added into each well and incubated in the incubator for another 4 hours. The culture medium is then removed and 200 μL DMSO is added to each well, and the plate is gently shaken for 5 min at room temperature. Finally, the absorbance at 490 nm is measured with a Bio-Rad microplate reader and the cell viability is calculated by the following equation: Cell Viability (%)=[Σ(Ai/Ācontrol×100)]/n
Ai is the absorbance of the ith group of data (I=1, 2 . . . , n), Ācontrol is the average absorbance of the control hole of the drug, and the parallel experiment is more than 3 times.

Data set [3] has as its system COS-7 cells. Description: In vitro cell selectivity test, confocal fluorescence uptake in co-cultured cells, COS-7. In kind it is cell-based, African green monkey. Conditions: 1 μM, 1 h, COS-7 co-cultured with HepG2, excitation 635 nm. Here is the method:
(§1) Firstly, HepG2 cells and COS-7 cells are cultured together in a cell culture dish for 24 h, and then 1 μM of 1-1-biotin or 1-1 is added and further incubation for 1 h. After staining, the cells are washed using serum-free medium for three times. Then, 2 mL fresh medium is added, and corresponding fluorescence observation is performed using the laser confocal scanning microscope. The excitation wavelength is 635 nm and the fluorescence receiving channel is 655 nm-755 nm.

A short description of data set [4]: UV absorption and fluorescence emission spectra in methanol. The format is physicochemical. The settings on record: 5 μM in methanol. Here is the method:
Compounds 1-1 and 1-2 synthesized from embodiment 1 above are added to 3 mL methanol solvent with a final concentration of 5 μM and their UV absorption spectra and fluorescence emission spectra are measured. […] The instruments used are AgIIlent 8453 UV spectrophotometer and AgIIlent Cary EclIIpse fluorescence spectrophotometer.
Benzophenoselenazine photosensitizer 2-1, 2-2, synthesized from embodiment 2 above are added to 3 mL methanol solvent with a final concentration of 5 μM, and their UV absorption spectra and fluorescence emission spectra are measured. […] The instruments used are AgIIlent 8453 UV spectrophotometer and AgIIlent Cary EclIIpse fluorescence spectrophotometer.
Compounds 1-1-IMC and 2-1-IMC synthesized from embodiment 3 above are added to 3 mL methanol solvent with a final concentration of 5 μM. The UV absorption spectra and fluorescence emission spectra are then measured. […] The instruments used are AgIIlent 8453 UV spectrophotometer and AgIIlent Cary EclIIpse fluorescence spectrophotometer.
Compounds 1-1-Biotin synthesized from embodiment 4 above is added to 3 mL methanol solvent with a final concentration of 5 μM, and then the UV absorption spectra and fluorescence emission spectra are detected. […] The instruments used are AgIIlent 8453 UV spectrophotometer and AgIIlent Cary EclIIpse fluorescence spectrophotometer.

The nature of data set [5]: Singlet oxygen production, DPBF absorption attenuation under 660 nm light, methylene blue as reference. In kind it is physicochemical. The settings on record: 5 μM in methanol. On the procedure:
Compounds 1-1 and 1-2 synthesized in the embodiment 1 are added to 3 mL methanol solvent with a final concentration of 5 μM. Next, 1, 3-diphenyl isobenzofuran (DPBF) is added, and adjusting the absorbance of DPBF in the solution to about 1.0. Then the ultraviolet absorption curve is measured. According to the changes of the absorbance value of DPBF at 411 nm after each irradiation (660 nm light source), the correlation curve between absorbance and time is drawn. With methylene blue (MB) as reference, the singlet oxygen yield is calculated using the following formula.
(§2) Compounds 1-1 and 1-2 synthesized in the above embodiment 2 are added to 3 mL methanol solvent with a final concentration of 5 μM. Then, the 1,3-diphenyl isobenzofuran (DPBF) is added, and the absorbance of DPBF in the solution is adjusted to about 1.0. Then the ultraviolet absorption curve is measured after each 660 nm red light irradiation. According to the changes of the absorbance value of DPBF at 411 nm, the correlation curve between absorbance and time is drawn. With methylene blue (MB) as reference, the following formula is used to calculate the oxygen yield of its singlet state.
[formula] […] The instruments used are AgIIlent 8453 UV spectrophotometer, and the light source is 300 W xenon lamp.
as §2, with “1-1-IMC” for “1-1”, “2-1-IMC” for “1-2”
Compounds 1-1-Biotin synthesized in the above […] are added to 3 mL methanol solvent with a final concentration of 5 μM. Then, the 1,3-diphenyl isobenzofuran (DPBF) is added, and the absorbance of DPBF in the solution is adjusted to about 1.0. Then the ultraviolet absorption curve is measured after each 660 nm red light irradiation. According to the changes of the absorbance value of DPBF at 411 nm, the correlation curve between absorbance and time is drawn. With methylene blue (MB) as reference, the following formula is used to calculate the oxygen yield of its singlet state.

The subject of data set [6] is HepG2 cells. Description: In vitro cell selectivity test, confocal fluorescence uptake in co-cultured cells, HepG2. The format is cell-based. Conditions: 1 μM, 1 h. On the procedure:
as §1

For the compound `CCN(CC)c1ccc2nc3c4ccccc4/c(=N\CCCCCCNC(=O)CCCCC4SC[C@@H]5NC(=O)N[C@H]45)cc-3sc2c1` (some centres unmarked) [1-1-Biotin], the “phototoxicity (cytotoxicity)” value in data set [1] (COS-7, 10 minutes irradiation with 660 nm LED light source) is listed as “only limited cytotoxicity”. Also, the “dark toxicity (cell survival rate)” value in data set [1] (COS-7, no light irradiation) was “low dark toxicity”. Besides, the “killing effect on biotin receptor overexpressing HepG2 cells relative to COS-7 cells” value in data set [2] (660 nm light, HepG2 vs COS-7 with low biotin receptor expression) is reported as “significantly higher”. For the same compound, in data set [2] (HepG2, 10 minutes irradiation with 660 nm LED light source, MTT), the “phototoxicity (cell killing)” value is recorded as “significant HepG2 cells arr killed”. Moreover, the “dark toxicity (cell survival rate)” value in data set [2] (HepG2, no light irradiation, MTT) is “low dark toxicity”. The “cell uptake (red fluorescence)” value in data set [3] is “very limited”. Further, in data set [4], the maximum absorption wavelength is given as 652 nm and the maximum emission wavelength is 681 nm. For the same compound, in data set [5], the singlet oxygen yield was determined as 0.04. The “cell uptake / targeting (red fluorescence)” value in data set [6] (HepG2 co-cultured with COS-7, excitation 635 nm) is “can specifically target HepG2 cells”.

In the case of `CCN(CC)c1ccc2nc3c4ccccc4/c(=N\CCCCCCNC(=O)Cc4c(C)n(C(=O)c5ccc(Cl)cc5)c5ccc(OC)cc45)cc-3sc2c1` [1-1-IMC], in data set [4], the maximum absorption wavelength stood at 654 nm and the maximum emission wavelength amounted to 694 nm. Further, in data set [5], the singlet oxygen yield was 0.04.

In data set [4], `CCN(CC)c1ccc2nc3c4ccccc4/c(=N\CCCCCCN)cc-3sc2c1` [1-1] gave a maximum absorption wavelength of 655 nm and a maximum emission wavelength of 694 nm. In data set [5], this compound returned a singlet oxygen yield of 0.04. In data set [6] (co-culture of HepG2 and COS-7), the “selectivity of uptake for HepG2 over COS-7 cells” value is “does not have such selectivity”.

In data set [4], `CCN(CC)c1ccc2nc3c4ccccc4/c(=N\CCCCCC(=O)O)cc-3sc2c1` [1-2] returned a maximum absorption wavelength of 655 nm and a maximum emission wavelength of 694 nm. In addition, the singlet oxygen yield in data set [5] amounted to 0.04.

`CCN(CC)c1ccc2nc3c4ccccc4/c(=N\CCCCCCNC(=O)Cc4c(C)n(C(=O)c5ccc(Cl)cc5)c5ccc(OC)cc45)cc-3[se]c2c1` [2-1-IMC]: in data set [4], the maximum absorption wavelength is 662 nm and the maximum emission wavelength was 703 nm. In data set [5], the singlet oxygen yield is 0.82.

In data set [4], `CCN(CC)c1ccc2nc3c4ccccc4/c(=N\CCCCCCN)cc-3[se]c2c1` [2-1] yielded a maximum absorption wavelength of 661 nm and a maximum emission wavelength of 702 nm. This compound displayed a singlet oxygen yield in data set [5] of 0.78.

As to `CCN(CC)c1ccc2nc3c4ccccc4/c(=N\CCCCCC(=O)O)cc-3[se]c2c1` [2-2], in data set [4], the maximum absorption wavelength came out at 661 nm and the maximum emission wavelength is on record as 702 nm. In data set [5], the singlet oxygen yield was 0.73.
